PubChem BioAssay (NCI)
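Interpolation was linear, between the two tested concentrations surrounding the appropriate level; five concentrations were tested over 48 hours in 96-well plates. TGI: total growth inhibition.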

Key:
Assay in all cases: NCI anticancer screen, dose series, 48 h
786-0 renal = system: 786-0 renal
A498 renal = system: A498 renal
A549 NSCLC = system: A549 NSCLC
ACHN renal = system: ACHN renal
BT-549 breast = system: BT-549 breast
CAKI-1 renal = system: CAKI-1 renal
CCRF-CEM leukemia = system: CCRF-CEM leukemia
DU-145 prostate = system: DU-145 prostate
EKVX NSCLC = system: EKVX NSCLC
HCC-2998 colon = system: HCC-2998 colon
HCT-116 colon = system: HCT-116 colon
HCT-15 colon = system: HCT-15 colon
HL-60(TB) leukemia = system: HL-60(TB) leukemia
HOP-62 NSCLC = system: HOP-62 NSCLC
HOP-92 NSCLC = system: HOP-92 NSCLC
HS 578T breast = system: HS 578T breast
HT29 colon = system: HT29 colon
IGROV1 ovarian = system: IGROV1 ovarian
K-562 leukemia = system: K-562 leukemia
LOX IMVI melanoma = system: LOX IMVI melanoma
M14 melanoma = system: M14 melanoma
MALME-3M melanoma = system: MALME-3M melanoma
MCF7 breast = system: MCF7 breast
MDA-MB-231 breast = system: MDA-MB-231 breast
MDA-MB-435 = system: MDA-MB-435
MDA-N = system: MDA-N
MOLT-4 leukemia = system: MOLT-4 leukemia
NCI-H23 lung = system: NCI-H23 lung
NCI-H460 lung = system: NCI-H460 lung
NCI-H522 lung = system: NCI-H522 lung
NCI/ADR-RES ovarian = system: NCI/ADR-RES ovarian
OVCAR-3 ovarian = system: OVCAR-3 ovarian
OVCAR-4 ovarian = system: OVCAR-4 ovarian
OVCAR-5 ovarian = system: OVCAR-5 ovarian
OVCAR-8 ovarian = system: OVCAR-8 ovarian
PC-3 prostate = system: PC-3 prostate
RPMI-8226 leukemia = system: RPMI-8226 leukemia
RXF 393 renal = system: RXF 393 renal
SF-268 CNS = system: SF-268 CNS
SF-295 CNS = system: SF-295 CNS
SK-MEL-2 melanoma = system: SK-MEL-2 melanoma
SN12C renal = system: SN12C renal
SNB-19 CNS = system: SNB-19 CNS
SNB-75 CNS = system: SNB-75 CNS
SR leukemia = system: SR leukemia
SW-620 colon = system: SW-620 colon
T-47D breast = system: T-47D breast
TK-10 renal = system: TK-10 renal
U251 CNS = system: U251 CNS
UACC-257 melanoma = system: UACC-257 melanoma
UACC-62 melanoma = system: UACC-62 melanoma
UO-31 renal = system: UO-31 renal
COLO 205 colon = system: COLO 205 colon
KM12 colon = system: KM12 colon
NCI-H226 lung = system: NCI-H226 lung
SF-539 CNS = system: SF-539 CNS
SK-MEL-28 melanoma = system: SK-MEL-28 melanoma
SK-MEL-5 melanoma = system: SK-MEL-5 melanoma
SK-OV-3 ovarian = system: SK-OV-3 ovarian

## O=C1CSC(c2c(O)ccc3ccccc23)N1n1c(=S)[nH]nc(/C=C/c2c(O)ccc3ccccc23)c1=O (centres undefined)
786-0 renal
  TGI: 14.5 µM
A498 renal
  TGI: 18.4 µM
A549 NSCLC
  TGI: 21.8 µM
ACHN renal
  TGI: 11.2 µM
BT-549 breast
  TGI: 23.5 µM
CAKI-1 renal
  TGI: 11.4 µM
CCRF-CEM leukemia
  TGI: 3.04 µM
DU-145 prostate
  TGI: 15.3 µM
EKVX NSCLC
  TGI: 51.3 µM
HCC-2998 colon
  TGI: 22 µM
HCT-116 colon
  TGI: 16.6 µM
HCT-15 colon
  TGI: 23.2 µM
HL-60(TB) leukemia
  TGI: 0.874 µM
HOP-62 NSCLC
  TGI: 22 µM
HOP-92 NSCLC
  TGI: 65.3 µM
HS 578T breast
  TGI: > 100 µM
HT29 colon
  TGI: 36.6 µM
IGROV1 ovarian
  TGI: 26.7 µM
K-562 leukemia
  TGI: 19.3 µM
LOX IMVI melanoma
  TGI: 17.5 µM
M14 melanoma
  TGI: 3.32 µM
MALME-3M melanoma
  TGI: 16.8 µM
MCF7 breast
  TGI: 18.9 µM
MDA-MB-231 breast
  TGI: 20.7 µM
MDA-MB-435
  TGI: 14.9 µM
MDA-N
  TGI: > 100 µM
MOLT-4 leukemia
  TGI: > 100 µM
NCI-H23 lung
  TGI: 23 µM
NCI-H460 lung
  TGI: 11.5 µM
NCI-H522 lung
  TGI: 21 µM
NCI/ADR-RES ovarian
  TGI: 14.7 µM
OVCAR-3 ovarian
  TGI: 17.7 µM
OVCAR-4 ovarian
  TGI: 40.3 µM
OVCAR-5 ovarian
  TGI: 38.1 µM
OVCAR-8 ovarian
  TGI: 21.4 µM
PC-3 prostate
  TGI: 22.5 µM
RPMI-8226 leukemia
  TGI: 17.4 µM
RXF 393 renal
  TGI: 13.7 µM
SF-268 CNS
  TGI: 40.3 µM
SF-295 CNS
  TGI: 37.2 µM
SK-MEL-2 melanoma
  TGI: 15.1 µM
SN12C renal
  TGI: 14.2 µM
SNB-19 CNS
  TGI: 76.6 µM
SNB-75 CNS
  TGI: 11.4 µM
SR leukemia
  TGI: 10.9 µM
SW-620 colon
  TGI: 52.1 µM
T-47D breast
  TGI: 15.1 µM
TK-10 renal
  TGI: 28.2 µM
U251 CNS
  TGI: 16.4 µM
UACC-257 melanoma
  TGI: 14.3 µM
UACC-62 melanoma
  TGI: 10.1 µM
UO-31 renal
  TGI: 15.1 µM

## CCCCCC/C=C\CCCCCCCCCc1c(O)c(OC)cc(O)c1CN(C)C
786-0 renal
  TGI: 3.26 µM
A498 renal
  TGI: 33.4 µM
A549 NSCLC
  TGI: 17.1 µM
ACHN renal
  TGI: 22.5 µM
BT-549 breast
  TGI: 21 µM
CAKI-1 renal
  TGI: 26.9 µM
CCRF-CEM leukemia
  TGI: 2.87 µM
COLO 205 colon
  TGI: 4.43 µM
DU-145 prostate
  TGI: 36 µM
EKVX NSCLC
  TGI: 23.6 µM
HCT-116 colon
  TGI: 22 µM
HCT-15 colon
  TGI: 10.8 µM
HL-60(TB) leukemia
  TGI: 5.37 µM
HOP-62 NSCLC
  TGI: 28.9 µM
HS 578T breast
  TGI: 10.9 µM
HT29 colon
  TGI: 16.1 µM
IGROV1 ovarian
  TGI: 11 µM
K-562 leukemia
  TGI: 4.49 µM
KM12 colon
  TGI: 11.7 µM
LOX IMVI melanoma
  TGI: > 100 µM
M14 melanoma
  TGI: 27.8 µM
MCF7 breast
  TGI: 7 µM
MDA-MB-231 breast
  TGI: 31.6 µM
MDA-MB-435
  TGI: 20 µM
MDA-N
  TGI: 32.2 µM
MOLT-4 leukemia
  TGI: 4.5 µM
NCI-H226 lung
  TGI: 36.7 µM
NCI-H23 lung
  TGI: 23.1 µM
NCI-H460 lung
  TGI: 15.2 µM
NCI-H522 lung
  TGI: 3.25 µM
NCI/ADR-RES ovarian
  TGI: 37 µM
OVCAR-3 ovarian
  TGI: 19 µM
OVCAR-4 ovarian
  TGI: 3.38 µM
OVCAR-5 ovarian
  TGI: 29.6 µM
OVCAR-8 ovarian
  TGI: 23.8 µM
PC-3 prostate
  TGI: 14.5 µM
RPMI-8226 leukemia
  TGI: 7.62 µM
SF-295 CNS
  TGI: 16.2 µM
SF-539 CNS
  TGI: 22.2 µM
SK-MEL-2 melanoma
  TGI: 40.1 µM
SK-MEL-28 melanoma
  TGI: 28.2 µM
SK-MEL-5 melanoma
  TGI: 18.6 µM
SK-OV-3 ovarian
  TGI: 28.1 µM
SN12C renal
  TGI: 20.7 µM
SNB-19 CNS
  TGI: 26.5 µM
SNB-75 CNS
  TGI: 13.8 µM
SR leukemia
  TGI: 4.23 µM
SW-620 colon
  TGI: > 100 µM
T-47D breast
  TGI: 4.2 µM
TK-10 renal
  TGI: 28.8 µM
U251 CNS
  TGI: 13.4 µM
UACC-257 melanoma
  TGI: 29.3 µM
UACC-62 melanoma
  TGI: 23.3 µM
UO-31 renal
  TGI: 15.5 µM

## O=C(O)c1ccc(/C=N\N(CCO)C2=NCCN2)cc1
786-0 renal
  TGI: > 100 µM
A549 NSCLC
  TGI: > 100 µM
ACHN renal
  TGI: > 100 µM
BT-549 breast
  TGI: > 100 µM
CCRF-CEM leukemia
  TGI: > 100 µM
COLO 205 colon
  TGI: > 100 µM
DU-145 prostate
  TGI: > 100 µM
EKVX NSCLC
  TGI: > 100 µM
HCC-2998 colon
  TGI: > 100 µM
HCT-116 colon
  TGI: > 100 µM
HCT-15 colon
  TGI: > 100 µM
HL-60(TB) leukemia
  TGI: > 100 µM
HOP-62 NSCLC
  TGI: > 100 µM
HOP-92 NSCLC
  TGI: > 100 µM
HS 578T breast
  TGI: > 100 µM
HT29 colon
  TGI: > 100 µM
IGROV1 ovarian
  TGI: > 100 µM
K-562 leukemia
  TGI: > 100 µM
KM12 colon
  TGI: > 100 µM
LOX IMVI melanoma
  TGI: > 100 µM
M14 melanoma
  TGI: > 100 µM
MALME-3M melanoma
  TGI: > 100 µM
MCF7 breast
  TGI: > 100 µM
MDA-MB-231 breast
  TGI: > 100 µM
MDA-MB-435
  TGI: > 100 µM
MDA-N
  TGI: > 100 µM
MOLT-4 leukemia
  TGI: > 100 µM
NCI-H226 lung
  TGI: > 100 µM
NCI-H23 lung
  TGI: > 100 µM
NCI-H460 lung
  TGI: > 100 µM
OVCAR-3 ovarian
  TGI: > 100 µM
OVCAR-4 ovarian
  TGI: > 100 µM
OVCAR-5 ovarian
  TGI: > 100 µM
OVCAR-8 ovarian
  TGI: > 100 µM
PC-3 prostate
  TGI: > 100 µM
RPMI-8226 leukemia
  TGI: > 100 µM
RXF 393 renal
  TGI: > 100 µM
SF-268 CNS
  TGI: > 100 µM
SF-295 CNS
  TGI: > 100 µM
SF-539 CNS
  TGI: > 100 µM
SK-MEL-2 melanoma
  TGI: > 100 µM
SK-MEL-28 melanoma
  TGI: > 100 µM
SK-MEL-5 melanoma
  TGI: > 100 µM
SK-OV-3 ovarian
  TGI: > 100 µM
SN12C renal
  TGI: > 100 µM
SNB-19 CNS
  TGI: > 100 µM
SNB-75 CNS
  TGI: > 100 µM
SR leukemia
  TGI: > 100 µM
SW-620 colon
  TGI: > 100 µM
T-47D breast
  TGI: > 100 µM
TK-10 renal
  TGI: > 100 µM
U251 CNS
  TGI: > 100 µM
UACC-62 melanoma
  TGI: > 100 µM
UO-31 renal
  TGI: > 100 µM

## CC(=O)O[C@H]1CC[C@H]2[C@@H]3CC[C@H]4Nc5c(cnn5S(C)(=O)=O)C[C@]4(C)[C@H]3CC[C@]12C
A498 renal
  TGI: > 100 µM
BT-549 breast
  TGI: 80.9 µM
CAKI-1 renal
  TGI: > 100 µM
CCRF-CEM leukemia
  TGI: > 100 µM
COLO 205 colon
  TGI: > 100 µM
DU-145 prostate
  TGI: > 100 µM
HCC-2998 colon
  TGI: > 100 µM
HCT-116 colon
  TGI: > 100 µM
HCT-15 colon
  TGI: > 100 µM
HL-60(TB) leukemia
  TGI: > 100 µM
HOP-62 NSCLC
  TGI: 77.4 µM
HOP-92 NSCLC
  TGI: > 100 µM
HS 578T breast
  TGI: > 100 µM
HT29 colon
  TGI: > 100 µM
IGROV1 ovarian
  TGI: > 100 µM
K-562 leukemia
  TGI: > 100 µM
KM12 colon
  TGI: > 100 µM
M14 melanoma
  TGI: > 100 µM
MALME-3M melanoma
  TGI: > 100 µM
MCF7 breast
  TGI: 82.4 µM
MDA-MB-231 breast
  TGI: > 100 µM
MDA-MB-435
  TGI: > 100 µM
MDA-N
  TGI: > 100 µM
MOLT-4 leukemia
  TGI: > 100 µM
NCI-H226 lung
  TGI: > 100 µM
NCI-H23 lung
  TGI: > 100 µM
NCI-H460 lung
  TGI: > 100 µM
NCI-H522 lung
  TGI: > 100 µM
NCI/ADR-RES ovarian
  TGI: > 100 µM
OVCAR-3 ovarian
  TGI: 78.1 µM
OVCAR-4 ovarian
  TGI: > 100 µM
OVCAR-5 ovarian
  TGI: > 100 µM
OVCAR-8 ovarian
  TGI: > 100 µM
PC-3 prostate
  TGI: > 100 µM
RPMI-8226 leukemia
  TGI: > 100 µM
RXF 393 renal
  TGI: > 100 µM
SF-295 CNS
  TGI: > 100 µM
SK-MEL-2 melanoma
  TGI: > 100 µM
SK-MEL-28 melanoma
  TGI: > 100 µM
SK-MEL-5 melanoma
  TGI: > 100 µM
SK-OV-3 ovarian
  TGI: > 100 µM
SN12C renal
  TGI: > 100 µM
SNB-19 CNS
  TGI: > 100 µM
SNB-75 CNS
  TGI: > 100 µM
SR leukemia
  TGI: > 100 µM
T-47D breast
  TGI: > 100 µM
U251 CNS
  TGI: > 100 µM
UACC-62 melanoma
  TGI: > 100 µM
UO-31 renal
  TGI: > 100 µM
